This is an account of results in US4686206A, “Composition for activating function of phagocytes” (Sunstar Kabushiki Kaisha, priority 1984, dated 1987).

Each structure is given as a SMILES string. Where only a bound is given, the exact number is not on record here.

Series [1] has as its system neutrophils. Kind of series: Phagocytosis of neutrophils (opsonized FITC-labeled Staphylococcus aureus IFO 13276). The class given is cell-based. The conditions noted are these: Homo sapiens, Neutrophil, 0.25 h; 1 μg/ml; 15 min at 37° C.; relative to control = 100%. How it is done:
Neutrophils were separated from human peripheral blood and a suspension containing 2.5×10^6 cells/ml of neutrophils was prepared. Tocopherol or a different tocopheryl glycoside was added to 900 μl of this suspension so that the concentration of tocopherol or the tocopheryl glycoside was 1 μg/ml and the mixture was incubated at 37° C. for 15 minutes.
The suspension (100 μl) containing 1×10^9 cells/ml of opsonized Staphylococcus aureus (IFO 13276) labeled with fluorescein isothiocyanate was added to the mixture. The resulting mixture was incubated at 37° C. for 15 minutes. Then, the number of cells incorporated into 100 cells of neutrophils was counted by using a fluorescence microscope. As a control, the same procedure was repeated except that tocopherol or the tocopheryl glycoside was not added. In Table 2, the relative percentage of the counting obtained by addition of tocopherol or the tocopheryl glycoside is shown by taking the counting of the control as 100%.

In series [2] the test system is neutrophils. Kind of series: Random migration of human neutrophils (Boyden chamber, PBS in lower part). Format: cell-based. The conditions noted are these: Neutrophil, 1 μg/ml, 15 min preincubation, 1 to 3 hours at 37° C., relative to control = 100%, read-out: random motoricity. How it is done:
(§1) Neutrophils were separated from human peripheral blood and the effect of various tocopherylglycosides on random migration and chemotaxis of the neutrophils were measured by using Boyden chambers.
(§2) Tocopherol or a tocopheryl glycoside dissolved in 1% dimethylsulfoxide was added to a suspension containing 2.5×10^6 cells/ml of neutrophils so that a concentration of tocopherol or the tocopheryl glycoside was 1 μg/ml. After 15 minutes incubation at 37° C., the mixture was added to the upper part of the chamber. To the lower part of the chamber was added PBS in case of measuring random migration, or added 2×10^-8 M of N-formyl-methionyl-leucyl-phenylalanine in case of measuring chemotaxis. Then, the chamber was incubated at 37° C. for 1 to 3 hours. After incubation, the filter was fixed and stained with hematoxylin, and then the number of neutrophils migrated to the bottom of the filter was counted by using a microscope. As a control, the same procedure was repeated except that tocopherol or the tocopheryl glycoside was not added. In Table 1, the relative percentage of the counting obtained by addition of tocopherol or the tocopheryl glycoside is shown by taking the counting of the control as 100%.

The test system of series [3] is neutrophils. Kind of series: Chemotaxis of human neutrophils (Boyden chamber, N-formyl-methionyl-leucyl-phenylalanine in lower part). Format: cell-based. The conditions noted are these: Neutrophil, 1 μg/ml, 2×10^-8 M N-formyl-methionyl-leucyl-phenylalanine, 1 to 3 hours at 37° C., relative to control = 100%. How it is done:
as §1, §2

A short description of series [4]: Acute toxicity (LD50) in rat. The conditions noted are these: in vivo.
The subject of series [5] is Pseudomonas aeruginosa (P-1 strain, Ikaken). Description: In vivo test to Pseudomonas aeruginosa (survival of infected mice). The settings on record: 1 mg/kg i.v. once a day for three days; 2.5×10^7 cells P. aeruginosa i.p.; after 24 hours; control 0%. Set-up: species or system ICR mice. How it is done:
An aqueous injectable solution of dl-α-tocopheryl glucoside or dl-α-tocopheryl mannoside (see Example 3) was intravenously injected to ICR mice (body weight: 20 to 25 g, 10 mice per a group (5 female mice and 5 male mice)) once a day (dose: 1 mg/kg) for three days continuously. After the final injection, 2.5×10^7 cells of Pseudomonas aeruginosa (P-1 strain, Ikaken) were injected i.p. and the percentage of survival animuls was determined after 24 hours. As a control, the same procedure was repeated except that an equal amount of distilled water was used instead of the tocopheryl glycoside and the percentage of survival animals was determined. As the result, the percentage of survival of the control group was 0%, whereas that of the group injected with dl-α-tocopherylglucoside or dl-α-tocopherylmannoside was 20%, respectively.

Take `Cc1c(C)c2c(c(C)c1OC1O[C@H](CO)[C@H](O)[C@H](O)[C@H]1O)CCC(C)(CCCC(C)CCCC(C)CCCC(C)C)O2` (mixture of isomers) [dl-α-Tocopherylgalactoside, reference compound]: the values for the activity at 1 µg/mL in series [1], in series [2] and in series [3] were 112 ± 9%, 64 ± 8% and 85 ± 3%, respectively.

Consider `Cc1c(C)c2c(c(C)c1OC1O[C@H](CO)[C@@H](O)[C@H](O)[C@H]1O)CCC(C)(CCCC(C)CCCC(C)CCCC(C)C)O2` (mixture of isomers) [dl-α-Tocopherylglucoside, dl-α-tocopherylglucoside], for which the activity at 1 µg/mL in series [1] came out at 168 ± 31%; in series [2], 98 ± 34%; in series [3], 140 ± 6%. The LD50 is at least 500 mg/kg in series [4] (ip) and at least 5000 mg/kg in series [4] (po). The same molecule gave a percentage of survival in series [5] of 20%.

Regarding `Cc1c(C)c2c(c(C)c1O[C@@H]1O[C@H](CO)[C@@H](O)[C@H](O)[C@@H]1O)CCC(C)(CCCC(C)CCCC(C)CCCC(C)C)O2` (mixture of isomers) [dl-α-Tocopherylmannoside], the activity at 1 µg/mL in series [1] was 219 ± 21%; in series [2] it was 71 ± 16%; in series [3] it was 168 ± 3%. Besides, the LD50 in series [4] (ip) was at least 500 mg/kg; in series [4] (po), at least 5000 mg/kg. The molecule further registered a percentage of survival in series [5] of 20%.

With `Cc1c(C)c2c(c(C)c1O)CCC(C)(CCCC(C)CCCC(C)CCCC(C)C)O2` (racemic) [dl-α-Tocopherol, reference compound], the activity at 1 µg/mL in series [1] turned out to be 164 ± 16%; in series [2], 82 ± 12%; in series [3] it was 94 ± 5%.
